pIC50: −log10 of the molar value.

The experiment concerns the target T1, Full length human recombinant HDAC6 protein (Homo sapiens, UniProt Q9UBN7).
T1 sequence (Q9UBN7 1-1215): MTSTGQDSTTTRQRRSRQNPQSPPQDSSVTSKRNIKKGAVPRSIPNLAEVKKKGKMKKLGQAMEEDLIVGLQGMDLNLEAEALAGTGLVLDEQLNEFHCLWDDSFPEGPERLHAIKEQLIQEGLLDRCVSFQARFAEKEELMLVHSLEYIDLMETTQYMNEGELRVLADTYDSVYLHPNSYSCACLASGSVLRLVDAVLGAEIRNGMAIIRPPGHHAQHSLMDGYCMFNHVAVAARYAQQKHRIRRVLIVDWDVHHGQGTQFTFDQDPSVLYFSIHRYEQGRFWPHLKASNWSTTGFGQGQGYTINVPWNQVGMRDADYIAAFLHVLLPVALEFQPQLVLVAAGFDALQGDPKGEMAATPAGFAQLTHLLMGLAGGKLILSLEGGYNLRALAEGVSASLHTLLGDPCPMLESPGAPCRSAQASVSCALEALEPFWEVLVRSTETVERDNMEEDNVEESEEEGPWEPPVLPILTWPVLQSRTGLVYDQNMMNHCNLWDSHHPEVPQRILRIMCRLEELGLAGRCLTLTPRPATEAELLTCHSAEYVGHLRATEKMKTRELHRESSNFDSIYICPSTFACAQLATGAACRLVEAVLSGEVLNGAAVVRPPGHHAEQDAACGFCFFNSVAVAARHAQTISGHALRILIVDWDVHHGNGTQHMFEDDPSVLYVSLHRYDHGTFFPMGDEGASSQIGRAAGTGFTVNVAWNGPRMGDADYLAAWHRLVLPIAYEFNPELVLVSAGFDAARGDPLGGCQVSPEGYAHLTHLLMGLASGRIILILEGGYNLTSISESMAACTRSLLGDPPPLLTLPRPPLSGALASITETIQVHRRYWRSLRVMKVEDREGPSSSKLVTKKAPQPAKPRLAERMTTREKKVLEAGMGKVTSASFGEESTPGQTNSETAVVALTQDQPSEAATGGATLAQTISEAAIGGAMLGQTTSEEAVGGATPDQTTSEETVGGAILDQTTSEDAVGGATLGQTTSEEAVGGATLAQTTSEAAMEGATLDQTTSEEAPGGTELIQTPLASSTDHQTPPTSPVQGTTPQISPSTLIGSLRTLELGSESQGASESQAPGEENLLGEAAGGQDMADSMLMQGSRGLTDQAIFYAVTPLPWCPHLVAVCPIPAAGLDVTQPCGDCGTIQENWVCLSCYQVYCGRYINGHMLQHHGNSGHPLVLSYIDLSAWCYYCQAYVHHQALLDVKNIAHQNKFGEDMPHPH
The experiment is described as follows: In vitro histone deacetylase assay: enzymatic HDAC6 electrophoretic mobility shift assay. Type of experiment: biochemical. Particulars: 1 nM enzyme, 2 μM peptide substrate RHKK(Ac)-NH2, 25° C., 12 concentrations; read-out: Inhibitory Concentration (IC50) Values against HDAC6, Activity Range. On the procedure: The enzymatic HDAC6 assay was performed using electrophoretic mobility shift assay. […] The enzymatic reactions were assembled in 384 well plates in a total volume of 25 μL in a reaction buffer composing: 100 mM HEPES, pH7.5, 25 mM KCl, 0.1% bovine serum albumin, 0.01% Triton X-100, 1% DMSO (from compounds) 2 μM of the fluorescently labeled peptide substrate and enzyme. The enzyme was added at a final concentration of 1 nM. The peptide substrate RHKK(Ac)—NH2 was used. The compounds were tested at 12 concentrations spaced by 3× dilution intervals. Negative control samples ([…] in the absence of inhibitor) and positive control samples (100%-inhibition) were assembled in replicates of four in each assay plate. The reactions were incubated at 25° C. and quenched by the addition of 45 μL of termination buffer (100 mM HEPES, pH 7.5, 0.01% Triton X-100, 0.05% SDS).
The terminated assay plates were analyzed on LabChip® 3000 microfluidic electrophoresis instrument (Perkin Elmer/Caliper Life Sciences). The fluorescence intensity of the electrophoretically separated de-acetylated product and substrate peptide was measured. Activity in each sample was determined as the product to sum ratio (PSR): P/(S+P), where P is the peak height of the product peptide and S is the peak height of the substrate peptide. Percent inhibition (Pinh) is determined using the following equation:
Pinh=(PSR0%−PSRinh)/(PSR0%−PSR100%)*100, where PSRinh is the product sum ratio in the presence of inhibitor, PSR0% is the average product sum ration in the absence of inhibitor and PSR100% is the average product sum ratio in 100%-inhibition control samples. The IC50 values of inhibitors were determined by fitting the %-inhibition curves with 4 parameter dose-response model using XLfit 4 software.

As for `O=C(NO)c1ccc2c(c1)OCCN(C(=O)Cc1cc(C(F)(F)F)cc(C(F)(F)F)c1)C2` [4-(2-(3,5-bis(trifluoromethyl)phenyl)acetyl)-N-hydroxy-2,3,4,5-tetrahydrobenzo[f][1,4]oxazepine-8-carboxamide], the pIC50 is 6.30 to 7.00.
`O=C(NO)c1ccc2c(c1)OCCN(C(=O)COc1cccc(Cl)c1)C2` [4-(2-(3-chlorophenoxy)acetyl)-N-hydroxy-2,3,4,5-tetrahydrobenzo[f][1,4]oxazepine-8-carboxamide]: the pIC50 is 6.30 to 7.00.
Regarding `CC(C)(C(=O)N1CCOc2cc(C(=O)NO)ccc2C1)n1cc(Cl)cn1` [4-(2-(4-chloro-1H-pyrazol-1-yl)-2-methylpropanoyl)-N-hydroxy-2,3,4,5-tetrahydrobenzo[f][1,4]oxazepine-8-carboxamide], the pIC50 is not below 7.00.
`CC(C)(C(=O)N1CCOc2cc(C(=O)NO)ccc2C1)c1ccc(F)cc1` [4-(2-(4-fluorophenyl)-2-methylpropanoyl)-N-hydroxy-2,3,4,5-tetrahydrobenzo[f][1,4]oxazepine-8-carboxamide]: the pIC50 was 6.30 to 7.00.
On to `CC(C(=O)N1CCOc2cc(C(=O)NO)ccc2C1)c1ccc(F)cc1` (stereo not drawn) [4-(2-(4-fluorophenyl)propanoyl)-N-hydroxy-2,3,4,5-tetrahydrobenzo[f][1,4]oxazepine-8-carboxamide], for which the pIC50 is 6.30 to 7.00.
On to `CC(C)(C(=O)N1CCOc2cc(C(=O)NO)ccc2C1)c1ccc(-c2ccccc2)cc1` [4-(2-([1,1′-biphenyl]-4-yl)-2-methylpropanoyl)-N-hydroxy-2,3,4,5-tetrahydrobenzo[f][1,4]oxazepine-8-carboxamide], for which the pIC50 was 6.30 to 7.00.
To `CC(C)(C)OC(C(=O)N1CCOc2cc(C(=O)NO)ccc2C1)c1ccccc1` (stereo not drawn) [4-(2-(tert-butoxy)-2-phenylacetyl)-N-hydroxy-2,3,4,5-tetrahydrobenzo[f][1,4]oxazepine-8-carboxamide] belongs 6.30 to 7.00; to `CC(C)(C(=O)N1CCOc2cc(C(=O)NO)ccc2C1)C1CCCCC1` [4-(2-cyclohexyl-2-methylpropanoyl)-N-hydroxy-2,3,4,5-tetrahydrobenzo[f][1,4]oxazepine-8-carboxamide], 6.30 to 7.00.
For `O=C(NO)c1ccc2c(c1)OCCN(C(=O)C(c1ccccc1)C1CCCCC1)C2` (stereo not drawn) [4-(2-cyclohexyl-2-phenylacetyl)-N-hydroxy-2,3,4,5-tetrahydrobenzo[f][1,4]oxazepine-8-carboxamide], the pIC50 was less than 6.30.
As to `O=C(NO)c1ccc2c(c1)OCCN(C(=O)C(O)(c1ccccc1)C1CCCC1)C2` (stereo not drawn) [4-(2-cyclopentyl-2-hydroxy-2-phenylacetyl)-N-hydroxy-2,3,4,5-tetrahydrobenzo[f][1,4]oxazepine-8-carboxamide], the pIC50 is less than 6.30.
As for `O=C(NO)c1ccc2c(c1)OCCN(C(=O)CC1CC1)C2` [4-(2-cyclopropylacetyl)-N-hydroxy-2,3,4,5-tetrahydrobenzo[f][1,4]oxazepine-8-carboxamide], the pIC50 is not below 7.00.
Take `O=C(NO)c1ccc2c(c1)OCCN(C(=O)C1CC(F)(F)C1)C2` [4-(3,3-difluorocyclobutane-1-carbonyl)-N-hydroxy-2,3,4,5-tetrahydrobenzo[f][1,4]oxazepine-8-carboxamide]: the pIC50 was 6.30 to 7.00.
Take `O=C(NO)c1ccc2c(c1)OCCN(C(=O)C1CCC(F)(F)C1)C2` (stereo not drawn) [4-(3,3-difluorocyclopentane-1-carbonyl)-N-hydroxy-2,3,4,5-tetrahydrobenzo[f][1,4]oxazepine-8-carboxamide]: the pIC50 was not below 7.00.
On to `O=C(NO)c1ccc2c(c1)OCCN(C(=O)c1cc(C(F)(F)F)cc(C(F)(F)F)c1)C2` [4-(3,5-bis(trifluoromethyl)benzoyl)-N-hydroxy-2,3,4,5-tetrahydrobenzo[f][1,4]oxazepine-8-carboxamide], for which the pIC50 is 6.30 to 7.00.
For the compound `CN(C)c1c(C(=O)N2CCOc3cc(C(=O)NO)ccc3C2)sc2ccccc12` [4-(3-(dimethylamino)benzo[b]thiophene-2-carbonyl)-N-hydroxy-2,3,4,5-tetrahydrobenzo[f][1,4]oxazepine-8-carboxamide], the pIC50 is not below 7.00.

The values are drawn from patent US11891365B2, “3-alkyl-4-amido-bicyclic [4,5,0] hydroxamic acids as HDAC inhibitors” (Valo Health, Inc., priority 2015, dated 2024).
